Assay results from US9119857B2, “Small molecule activators of HsIV protease for development of novel antimicrobials” (priority 2013, dated 2015).

Molecular target: T1, E. coli HslV peptidase (Escherichia coli, UniProt P0A7B8)
T1 construct: His tag (inferred from Ni-chelating purification and the pET20B+ vector); made in house; host or cells: E. coli BL21 (DE3), pET20B+ vector
Assay: biochemical
Conditions: recombinant E. coli HslV; substrate Z-Gly-Gly-Leu-AMC; in the absence of HslU; ED50 = concentration giving half maximal reaction velocity, from Vi/Vo plots; read-out: E. coli HslV activation (ED50 in μM)
Description: ED50 values were calculated from the plots of Vi/Vo versus compound concentration in which Vi and Vo were the velocities in the presence and absence of the compound^20.
The HslV activation assays were carried out with recombinant E. coli HslV and HslU. Recombinant HslV and HslU were expressed in E. coli BL21 (DE3) cells containing pET20B+ vector. Purification of both proteins was carried out using Ni-chelating and ion-exchange chromatography as reported elsewhere^4.
Plots of HslV peptidase activity as a function of compound concentrations were constructed (FIG. 4).

T1 sequence (P0A7B8 2-176): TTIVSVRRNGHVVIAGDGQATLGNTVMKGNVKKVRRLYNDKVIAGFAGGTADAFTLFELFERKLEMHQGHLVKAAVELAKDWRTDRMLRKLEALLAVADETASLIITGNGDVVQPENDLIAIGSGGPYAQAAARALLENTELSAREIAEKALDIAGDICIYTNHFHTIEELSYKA

Q: `O=C(N/N=C/c1cc(=O)c2ccccc2o1)c1ccccc1` [Compound 2, N″-[(1E)-(4-oxo-4H-chromen-2-yl)methylidene]benzohydrazide] was tested. Which EC50 did it give?
A: Its EC50 is 1.3 ± 0.4 µM.

Q: Which EC50 does the source give for `O=c1c2ccccc2nc(-c2ccc([N+](=O)[O-])cc2)n1/N=C/c1c(O)ccc2ccccc12` [Compound 1, 3-[(E)-[(2-hydroxynaphthalen-1-yl)methylidene]amino]-2-(4-nitrophenyl)-3,4-dihydroquinazolin-4-one] here?
A: The EC50 was 0.9 ± 0.25 µM.
